The source of these data is patent US6399654B1, “Biflavanoids and derivatives thereof as antiviral agents” (priority 1995, dated 2002).

Data set [1] is described as follows: Cytotoxicity by neutral red dye uptake, A549 cells. Conditions: human.
Data set [2] is described as follows: in vitro. Conditions: human.
The nature of data set [3]: in vitro. The note with it: dog, Neutral Red IC50 (cytotoxic).
A short description of data set [4]: Cytotoxicity in uninfected PHA-stimulated human PBM cells. Conditions: human.
Data set [5] is described as follows: Cytotoxicity by neutral red dye uptake, MA-104 cells. Conditions: African green monkey, Neutral Red IC50 (cytotoxic).
Data set [6] concerns Madin Darby canine kidney (MDCK) cells. Conditions: Influenza A (H3N2) test.
The subject of a further data set is Influenza B Panama/45/90. The data set can be described thus: microbe, parasite or virus in culture. Conditions: Influenza B virus, MDCK, read-out: Neutral Red EC50. The format is cell-based.

≈ marks a conversion by molar mass, not a printed value.

Take `O=c1cc(-c2ccc(O)c(-c3c(O)cc4oc(-c5ccc(O)cc5)cc(=O)c4c3O)c2)oc2cc(O)cc(O)c12` [Robustaflavone (3), robustaflavone]: the IC50 – broadly, the concentration that inhibits the measured activity by half – was 102 µg/mL (≈ 189 µM) in data set [1]; 56 µg/mL (≈ 104 µM) in “in vitro [2]”; roughly 32 µg/mL (≈ 59.4 µM) in “in vitro [3]” (Influenza A (H1N1) test); roughly 100 µg/mL (≈ 186 µM) in the data set “in vitro [3]” (Influenza A (H3N2) test); 100 µg/mL (≈ 186 µM) in “in vitro [3]” (Influenza B test); 77 µM in data set [4]. The IC50 was 79 µg/mL (≈ 147 µM) in data set [5] (Parainfluenza Type 3 Virus test) and roughly 100 µg/mL (≈ 186 µM) in data set [5] (Respiratory Syncytial Virus test). The “CPE Inhibition IC50 (cytotoxic)” value in data set [6] is listed as “˜32 ug/mL”. The EC50 (as a rule, the concentration that produces a half-maximal response) in the data set with Influenza B Panama/45/90 came to 0.22 µg/mL (≈ 0.409 µM).
